Source: patent publication US20240024301A1, “METHODS OF TREATING HEAD AND NECK SQUAMOUS CELL CARCINOMA” (Kura Oncology, Inc., priority 2022, published 2024)

What was measured:
BICR22 cells = assay: Immunoblots of MAPK/PI3K pathway components and apoptotic markers; type: cell-based; conditions: BICR22 (PIK3CA copy gain); alpelisib 0, 1, 24 hours, absence or presence of tipifarnib (48-hour treatment)
Protocol: (§1) Immunoblots of MAPK/PI3K pathway components and apoptotic markers in PIK3CA-mutant CAL33 cells treated with alpelisib (BYL-719) for 0, 1, 2, 6, and 24 hours in the absence or presence of tipifarnib (48-hour treatment) are shown in FIG. 2A. A shift in Rheb and HRas protein mobility is indicative of defarnesylation. Generally, immunoblotting was performed as follows: Cell lysates were prepared on ice by washing cells once with PBS, resuspending in 1× cell lysis buffer (Cell Signaling Technology #9803) or RIPA buffer supplemented with Halt protease inhibitor cocktail (Thermo Scientific #78430) and briefly sonicated or vortexed. Lysates were cleared by centrifugation (maximum speed, 10 min) and protein concentration was determined by BCA assay (Pierce). Lysate (20-60 μg) was loaded onto 4-12% Bis-Tris gels (NuPAGE, Invitrogen) for electrophoresis and immunoblotting. When RAS was evaluated, active RAS was detected using Thermo Scientific kit #16117. Membrane and cytosolic fractions were isolated using the Mem-PER Plus Membrane Protein Extraction Kit (Thermo Scientific kit #89842).
(§2) Immunoblots of MAPK/PI3K pathway components and apoptotic markers in high HRas protein (i.e., overexpression of wild-type HRas protein) HNSCC cell line SCC9 cells and in PIK3CA copy gain (amplified) BICR22 cells are shown in FIG. 2B and FIG. 2D, respectively. […]

SCC9 cells = assay: as above; type: cell-based; conditions: SCC9 (HRas high); alpelisib 0, 1, 24 hours, absence or presence of tipifarnib (48-hour treatment)
Protocol: as §1, §2

[1] = system: PIK3CA-mutant CAL33 tumors; assay: Immunoblot and immunohistochemistry of treated CAL33 xenograft tumors; type: in vivo, athymic mice; conditions: tipifarnib 60 mg/kg BID, 10 days
Protocol: To assess the underlying mechanism of tumor regression, the PIK3CA-mutant CAL33 tumors were treated with tipifarnib (60 mg/kg BID), alpelisib (40 mg/kg QD), or the combination for 10 days. On day 10, tumors were collected from all cohorts at 2 and 24 hours after the final dose of alpelisib for immunohistochemistry and immunoblot analysis. […] Addition of tipifarnib blocked this rebound and promoted cell cycle arrest as indicated by decreased Rb phosphorylation.

HSC2 (H1047R) = assay: PI3K-mTOR signaling by immunoblot; type: cell-based; conditions: 1 h and 24 h
Protocol: PI3K-mTOR Signaling in PIK3CA-mutant HSC2 Cell Line. The PIK3CA-mutant HNSCC cell line HSC2 (H1047R) was treated with the tipifarnib-alpelisib combination and mTOR activity was assessed by immunoblot.

CAL33 xenograft tumors = assay: Immunohistochemistry of CAL33 CDX tumor samples; type: in vivo, mice; conditions: alpelisib 40 mg/kg QD, tipifarnib 60 mg/kg BID, or the combination, 10 days
Protocol: CAL33 xenograft tumors treated with alpelisib (40 mg/kg QD), tipifarnib (60 mg/kg BID), or the combination, for 10 days were subjected to immunohistochemistry analysis to assess levels of cell proliferation and apoptosis.
Fixation of tumor samples was performed by zinc formalin (Z-Fix, Anatech) and tissues were paraffin-embedded; samples were sectioned into 5 μm sections. Samples were deparaffinized, hydrated with graded ethanols, and the endogenous peroxidase was blocked with 3% H2O2 in 70% ethanol. After washing with distilled water, antigen retrieval was performed with IHC antigen retrieval solution (ThermoFisher Scientific, #00-4955-58) in a microwave at the high setting. Slides were then washed with water and PBS, and incubated with the primary and secondary antibodies, and developed with the ABC reagent (Vector Laboratories, #PK-6100) and the DAB substrate kit (Vector Laboratories, #SK-4105). The following antibodies were used: Cleaved PARP (Cell Signaling Technology #9661, 1:400 dilution) and Ki67 (DACO #M7240, 1:50). Percent positive cells in three fields per slide were counted using a microscope.

[2] = system: PIK3CA-mutant CAL33 cells; assay: Immunoblots of MAPK/PI3K pathway components and apoptotic markers; type: cell-based; conditions: alpelisib 0, 1, 2, 6, 24 hours, absence or presence of tipifarnib (48-hour treatment)
Protocol: as §1
However, by 24 hours, phosphorylation of these proteins partially or completely rebounded. […]

Rheb protein = assay: Lysosome extraction by density gradient ultracentrifugation and immunoblot; type: cell-based; conditions: CAL33 cells, versus DMSO
Excerpt: Active Rheb protein is thought to localize to lysosomes to regulate mTOR activity. Density gradient ultracentrifugation was utilized to extract lysosomes from CAL33 cells treated with DMSO or tipifarnib. Lysosomes were lysed and subjected to immunoblot analysis alongside whole-cell lysate (WCL), FIG. 4. LAMP1 is a lysosome-specific marker and is used in this assay.

UM-SCC-17B (Q61L) = assay: HRAS-mutant cell line spheroid growth, checkerboard, 7 days; type: cell-based
Protocol: (§3) Because a farnesyltransferase inhibitor may block hyperactivated growth factor signaling at multiple nodes, including HRas protein and Rheb protein, the impact of tipifarnib on the growth of PIK3CA-altered HNSCC models and HRAS-mutant HNSCC models in vitro and in vivo was examined. For tumor spheroid growth assays, cells were resuspended in 4% Matrigel and seeded in 96-well ultralow attachment plates at a density of 1-1.5K cells/well. The following day, spheroids were treated with alpelisib and/or tipifarnib and baseline growth measured using 3D Cell Titer Glo reagent (Promega). Spheroids were incubated with drug for 7 days and a final CTG reading taken. Percentage growth was calculated by[(Ti−Tz)/(C−Tz)]×100 for concentrations for which Ti>/=Tz and [(Ti−Tz)/Tz]×100 for concentrations for which Ti<Tz, where Tz=time zero, C=control growth, and Ti=test growth at each drug concentration. […] Consistently, in PIK3CA mutant/amplified PDX models, the tipifarnib-alpelisib doublet led to deeper antitumor responses compared to alpelisib monotherapy.
Inhibition of HRAS-mutant cell line spheroid growth by tipifarnib and/or alpelisib. The HRAS-mutant HNSCC cell line UM-SCC-17B (Q61L) was cultured as 3D tumor spheroids and treated with tipifarnib and/or alpelisib in a checkerboard dose-response fashion for 7 days.

[3] = molecular target: geranylgeranyltransferase type 1 (Homo sapiens, UniProt P53609); conditions: cited from earlier work
[4] = system: cell lines harboring PIK3CA mutation or amplification; assay: Growth of PIK3CA-altered HNSCC cell lines, monolayer and spheroid cultures; type: cell-based
Protocol: as §3

HRAS and RHEB = assay: Subcellular fractionation and immunoblot of cytosol and membrane fractions; type: cell-based; conditions: CAL33, BICR22, and SCC9 cells; 1 μM tipifarnib (48 hr)
Protocol: as §1
CAL33, BICR22, and SCC9 cells were treated with DMSO, 250 nM alpelisib (24 hr), 1 μM tipifarnib (48 hr), or the combination.

| SMILES | Pathway activity, cell cycle and apoptotic markers (immunoblot) (BICR22 cells) | Pathway activity, cell cycle and apoptotic markers (immunoblot) (SCC9 cells) | mTOR activity (4EBP1, S6 phosphorylation) ([1]; alpelisib 40 mg/kg QD, tumors collected 2 and 24 hours after final alpelisib dose) | mTOR activity (phospho-S6K and S6) and PARP cleavage (HSC2 (H1047R)) | Cleaved PARP (% positive cells) (CAL33 xenograft tumors) | Ki67 (% positive cells) (CAL33 xenograft tumors) | Pathway activity, cell cycle and apoptotic markers (immunoblot) [2] | Lysosomal localization of Rheb protein (Rheb protein) | Cytotoxicity in 3D tumor spheroids (UM-SCC-17B (Q61L)) | Farnesylation of HRAS and RHEB (immunoblot) [1] | Inhibition of geranylgeranyltransferase type 1 [3] | Proliferation / cytotoxicity [4] | Membrane localization of HRAS and RHEB (HRAS and RHEB) |
| --- | --- | --- | --- | --- | --- | --- | --- | --- | --- | --- | --- | --- | --- |
| Cc1nc(NC(=O)N2CCC[C@H]2C(N)=O)sc1-c1ccnc(C(C)(C)C(F)(F)F)c1 [Alpelisib, (2S)—N^1-[4-Methyl-5-[2-(2,2,2-trifluoro-1,1-dimethylethyl)-4-pyridinyl]-2-thiazolyl]-1,2-pyrrolidinedicarboxamide] | transiently reduced | transiently reduced | transiently inhibited mTOR activity | transiently inhibited | 5.1 ± 0.4 | 53.7 ± 9.8 | rapidly inhibited the activity of AKT, mTOR, and ERK |  |  |  |  |  |  |
| Cn1cncc1[C@@](N)(c1ccc(Cl)cc1)c1ccc2c(c1)c(-c1cccc(Cl)c1)cc(=O)n2C [Tipifarnib, (R)-6-[amino(4-chlorophenyl)(1-methyl-1H-imidazol-5-yl)methyl]-4-(3-chlorophenyl)-1-methyl-2(1H)-quinolinone] |  |  |  |  | 4.9 ± 2.1 | 35.1 ± 8.1 |  | markedly diminished the lysosomal localization of Rheb protein | induced cytotoxicity | resulted in defarnesylation of HRAS and RHEB | not an inhibitor of geranylgeranyltransferase type 1 | reduced proliferation of both monolayer and spheroid cultures | resulted in the membrane delocalization of the majority of HRAS and RHEB in all three cell types |
